# Values quoted from earlier work in the CATMoS acute toxicity set (Mansouri et al. 2021).
# “And” between values parts separate entries of the source, which are not always exact repeats. Identical values can stand only once.
# Test: rat acute oral toxicity
# Conditions: in vivo
row,Structure (SMILES),LD50
1,CCOC1CC(C)C=CO1 (stereo unspecified),3400 mg/kg
2,CCCSP(=O)(OCC)Oc1ccccc1 (stereo unspecified),295 mg/kg
3,COc1cc(C(=O)N2CCN(C(=O)c3cc(OC)c(OC)c(OC)c3)CC2)cc(OC)c1OC,1000 mg/kg
4,CCC(=O)c1ccc2c(c1)N(CCCN(C)C)c1ccccc1S2,500 mg/kg
5,CCN(CC)CC#N,160 mg/kg
6,CCN(CCC#N)c1cccc(C)c1,3710 mg/kg
7,CC[C@H]1C[C@H]2[C@@H]3CCC4=CC(=O)CC[C@@H]4[C@H]3CC[C@]2(C)[C@H]1O,12100 mg/kg
8,CC(O)=S,200 mg/kg
9,COc1cc(OC)cc(OCC(O)CO)c1 (stereo unspecified),2100 mg/kg
10,CCOP(=O)(OCC)SCn1nc(Cl)c(C)cc1=O,27 mg/kg
11,CCOC(=O)C1=C(C)NC(C)=C(C(=O)OC)C1c1cccc([N+](=O)[O-])c1 (stereo unspecified),15400 mg/kg
12,CCC(C)(C)c1ccc(Cl)c(OC(=O)NC)c1,75 mg/kg
13,CCCNNc1ccccc1,13 mg/kg
14,C=CCOC(=O)CCC,250 mg/kg
15,CCCN(CCC)C(=O)C(CCC(=O)N1CCN(CCOC(=O)Cc2c(C)n(C(=O)c3ccc(Cl)cc3)c3ccc(OC)cc23)CC1)NC(=O)c1ccccc1 (stereo unspecified),315 mg/kg
16,CC(C(=O)O)c1cccc(Oc2ccccc2)c1 (stereo unspecified),800 mg/kg
17,CC1N=C(N)CC1c1ccccc1 (stereo unspecified),420 mg/kg
18,NC(Cl)(Cl)c1nc(Cl)c(Cl)c(Cl)c1Cl,1500 mg/kg
19,NCCNCCNCc1ccccc1O,2300 mg/kg
20,CCOP(=O)(OCC)OC(C)=CC(=O)OC(C)c1ccccc1 (stereo unspecified),65 mg/kg
21,c1nc(NC2CC2)c2ncn(CC3CC3)c2n1,160 mg/kg
22,CO[C@]12C[C@@H](COC(=O)c3cncc(Br)c3)CN(C)[C@@H]1Cc1cn(C)c3cccc2c13,1190 mg/kg
23,CC1C(=NOC(=O)N(C)SC(Cl)(Cl)Cl)SCC(=O)N1C (stereo unspecified),3.54 mg/kg
24,Cc1c(Nc2ncnc3ccccc23)c(=O)n(C)n1-c1ccccc1,369 mg/kg

row,Structure (SMILES),LD50
1,CCOP(=S)(OCC)O/N=C(\C#N)c1ccccc1,300 mg/kg
2,Nc1nc2cc(Cl)c(Br)cc2o1,140 mg/kg
3,CC(=O)N1N=C(c2ccc(N)cc2)c2cc3c(cc2CC1C)OCO3 (stereo unspecified),200 mg/kg
4,OCCC(F)(F)C(F)(F)C(F)(F)C(F)(F)C(F)(F)C(F)(F)F,1750 mg/kg
5,CCCCN(CCCC)CC(C)O (stereo unspecified),1990 mg/kg
6,CCOC(=O)C1(c2ccccc2)CCCN(C)CC1 (stereo unspecified),580 mg/kg and 355 mg/kg
7,COc1cc(C)c2[nH]c(C)c(CCN3CC4CCC(CC4)C3)c2c1,787 mg/kg
8,C=CCN1CCCC1=Nc1ccc(Cl)c(Cl)c1,1850 mg/kg
9,CCCCC(C)(C)[C@H](O)C=C[C@H]1[C@H](O)CC(=O)[C@@H]1CCCCC=CC(=O)OC,56.5 mg/kg
10,CCCCCCCCCCCCCCCCC[N+](C)(C)C,3650 mg/kg
11,S=C(S)NCCNC(=S)S,1850 mg/kg and 2850 mg/kg
12,C=C1C(=O)O[C@@H]2C[C@@H](C)[C@@H]3C=CC(=O)[C@@]3(C)[C@@H](O)[C@H]12,125 mg/kg
13,CS(=O)(=O)F,2 mg/kg
14,O=C1OCC2C1C1(Cl)C(Cl)=C(Cl)C2(Cl)C1(Cl)Cl (stereo unspecified),105 mg/kg
15,C=C(Cl)C(=O)OC,68 mg/kg
16,CCc1c(Cl)ccc(O)c1Cl,2260 mg/kg
17,Cc1ccc(S(=O)(=O)NC(=O)NC2C3CCC(C)(C2O)C3(C)C)cc1 (stereo unspecified),18000 mg/kg
18,CCCCNC(=O)c1ccccc1,5140 mg/kg
19,CC(C)OC(=O)c1c[n+](C)c2n(c1=O)C(C)CCC2 (stereo unspecified),1200 mg/kg
20,FC(F)(F)c1cccc(Nc2ccccc2-c2nn[nH]n2)c1,455 mg/kg
21,O=[N+]([O-])c1ccc2c(N=Nc3ccc4ccccc4c3O)c(O)cc(S(=O)(=O)O)c2c1,17600 mg/kg
22,c1ccc(C(N2CCOCC2)N2CCOCC2)cc1,5060 mg/kg
23,CCCCCCCCCCO,4720 mg/kg
24,CCC(C)=CCCC(C)=CC#N,2600 mg/kg

row,Structure (SMILES),LD50
1,CCCCNP(=S)(OCC)Sc1ccccc1 (stereo unspecified),300 mg/kg
2,CN=C(O)O/N=C1/SCOC1(C)C,2 mg/kg
3,O=C(O)C(F)(F)C(F)(F)C(F)(F)C(F)(F)C(F)(F)C(F)(F)C(F)(F)C(F)(F)C(F)(F)C(F)F,518 mg/kg
4,CCN(CC)C(=O)N[C@H]1C[C@@H]2c3cccc4[nH]cc(c34)C[C@H]2N(C)C1,100 mg/kg
5,Oc1ccc(Sc2ccc(O)cc2)cc1,3360 mg/kg
6,O=C(OCC(COC(=O)c1ccccc1)(COC(=O)c1ccccc1)COC(=O)c1ccccc1)c1ccccc1,1160 mg/kg
7,CC(Cl)=CC(=O)Nc1ccc(O)cc1,1580 mg/kg
8,CC1(C)Cc2cccc(OC(=O)NCSc3ccc(Cl)cc3)c2O1,25 mg/kg
9,COc1ccc(N)c(S(=O)(=O)O)c1,10000 mg/kg
10,C=C(C)C1CC=C(C)C(O)C1 (stereo unspecified),3000 mg/kg
11,CCCCCCCCCc1ccc(OCCOS(=O)(=O)O)cc1,10000 mg/kg
12,Cc1ccc(NCCCc2ccccc2)cc1,1600 mg/kg
13,CC(C#N)N1CCOCC1 (stereo unspecified),87 mg/kg
14,C[N+](C)(C)CCBr,190 mg/kg
15,Cc1cc(-n2c(C)nc3ccccc3c2=O)n(-c2ccccc2)n1,1800 mg/kg
16,CN1CCN(CC/C=C2/c3ccccc3Sc3ccc(S(=O)(=O)N(C)C)cc32)CC1,410 mg/kg
17,O=C(O)CC(O)c1ccc(-c2ccc(Cl)cc2)o1 (stereo unspecified),2460 mg/kg
18,CCC(C)C(C(=O)OCC[N+](C)(CC)CC)c1ccccc1 (stereo unspecified),1260 mg/kg
19,COc1ccc(C(=C(C#N)CCC(=O)O)c2ccc(OC)cc2)cc1,337 mg/kg
20,COc1ccc(C2Sc3ccccc3N(CCN(C)C)C(=O)C2OC(C)=O)cc1 (stereo unspecified),560 mg/kg
21,CC=C(C)C(=O)N1CCCc2cc(C)ccc21,2200 mg/kg
22,CCNCC(O)c1cccc(O)c1 (stereo unspecified),114 mg/kg
23,CCC(C)c1cc(OC(=O)NC)ccc1C (stereo unspecified),35 mg/kg
24,CCCOC(=O)OOC(=O)OCCC,3400 mg/kg

row,Structure (SMILES),LD50
1,CC(Oc1c(Cl)cccc1Cl)C1=NCCN1 (stereo unspecified),70 mg/kg
2,CCCCCCCCCCCCCC[N+](C)(C)Cc1ccccc1,426 mg/kg
3,COc1ccc(N)c([N+](=O)[O-])c1,14100 mg/kg
4,CO[C@H]1[C@@H](O)C[C@H](O[C@H]2[C@@H](O)C[C@H](O[C@H]3[C@@H](O)C[C@H](O[C@H]4CC[C@@]5(C)[C@H](CC[C@@H]6[C@@H]5C[C@@H](O)[C@]5(C)[C@@H](C7=CC(=O)OC7)CC[C@]65O)C4)O[C@@H]3C)O[C@@H]2C)O[C@@H]1C,8.3 mg/kg
5,CCC(=O)OCCc1ccccc1,4000 mg/kg
6,CNC(=O)ON=C1SC(C)C(=O)NC1(C)C (stereo unspecified),0.884 mg/kg
7,CCN(CC)CCN(C)n1cc(-c2ccccc2)c2ccccc21,650 mg/kg
8,CCOC(=O)C1(c2ccccc2)CCN(CCOCc2ccccc2)CC1,284 mg/kg
9,CCCCOC(C)OCCCC,8790 mg/kg
10,Cc1ncc(CO)c(CO)c1O,4000 mg/kg
11,O=C(CF)NNc1ccccc1,9.1 mg/kg
12,C#CCOc1cccc(OC(=O)NC)c1,150 mg/kg
13,Nc1c(S(=O)(=O)O)cc(Nc2ccc(S(=O)(=O)O)c(Nc3nc(Cl)nc(Cl)n3)c2)c2c1C(=O)c1ccccc1C2=O,8980 mg/kg
14,CCCn1c2ccccc2c2cc(N)ccc21,423 mg/kg
15,CCC1(CCC(C)C)C(=O)NC(=O)NC1=O,250 mg/kg
16,O=[N+]([O-])C(Br)(Br)CO,29.1 mg/kg
17,O=C(O)c1c(Cl)ccc2cc(Cl)cnc12,2190 mg/kg
18,CCOC(=O)NCCOc1ccc(Oc2ccccc2)cc1,16800 mg/kg
19,COCC(C)N(C(=O)CCl)c1c(C)csc1C (stereo unspecified),397 mg/kg
20,CCCCCCc1ccc(C(C[n+]2ccccc2)OCC(CC)CCCC)cc1 (stereo unspecified),250 mg/kg
21,O=C(O)C1C2CCC(O2)C1C(=O)O (stereo unspecified),51 mg/kg
22,CC=CC(=O)N(CC)c1ccccc1C,1500 mg/kg
23,CCCCCc1ccccc1O,700 mg/kg
24,CN(C)CCC1(c2ccccc2)C=Cc2ccccc21 (stereo unspecified),385 mg/kg

row,Structure (SMILES),LD50
1,CCC(C)(O)CCc1ccccc1 (stereo unspecified),2950 mg/kg
2,Cc1ccc2ccccc2c1N,620 mg/kg
3,CC=Cc1ccc(OC(C)=O)c(OC)c1,3450 mg/kg
4,Oc1ccc(Cl)c(O)c1,369 mg/kg
5,O=C(Cl)OCc1ccccc1,3000 mg/kg
6,Nc1nc(N)nc(-c2cc(Cl)ccc2Cl)n1,2900 mg/kg
7,CC(Br)(CCl)CBr (stereo unspecified),780 mg/kg
8,CS(=O)(=O)OC(CCN1CCCCC1)(c1ccccc1)c1ccccc1,1240 mg/kg
9,Cn1c2ccccc2c2cc(N)ccc21,347 mg/kg
10,CCCCCCCCOC(=O)Oc1ccc([N+](=O)[O-])cc1[N+](=O)[O-],196 mg/kg
11,CCCCNC(=O)NS(=O)(=O)c1ccc(C)cc1,2490 mg/kg
12,CCc1cc2c(s1)-n1c(C)nnc1CN=C2c1ccccc1Cl,3510 mg/kg
13,Oc1ccc(C2=CCCCC2)cc1,2830 mg/kg
14,CCCCCCCCNC(C)C(O)c1ccc(SC(C)C)cc1 (stereo unspecified),1740 mg/kg
15,NC(=O)N1CCC(c2ccccc2)CC1,790 mg/kg
16,Cc1cn[nH]c1,534 mg/kg
17,Nc1ccc(OCCO)c(N)c1,1000 mg/kg
18,Nc1cccc(Cl)c1,256 mg/kg
19,O=C(Nc1ccccc1)c1ccccc1I,6400 mg/kg
20,CC(Cl)C(=O)O (stereo unspecified),800 mg/kg
21,O=c1n(CCCN2CCN(c3cccc(Cl)c3)CC2)nc2ccccn12,690 mg/kg
22,CCOP(=O)(OCC)C(SCC)(P(=O)(OCC)OCC)P(=O)(OCC)OCC,7.25 mg/kg
23,CC(=O)OC(OC(C)=O)C(Cl)CCl (stereo unspecified),320 mg/kg
24,COC(=O)C=Cc1ccccc1,2610 mg/kg

row,Structure (SMILES),LD50
1,CNC(C)Cc1ccc(Cl)cc1 (stereo unspecified),110 mg/kg
2,C=CCn1c(C)c(N(C)C)c(=O)n(-c2ccccc2)c1=O,2400 mg/kg
3,CC(=O)C(N=Nc1ccc(-c2ccc(N=NC(C(C)=O)C(=O)Nc3ccc(C)cc3)c(Cl)c2)cc1Cl)C(=O)Nc1ccc(C)cc1 (stereo unspecified),2230 mg/kg
4,ClCC[N+]1(CCCCCC[N+]2(CCCl)CCCO2)CCCO1 (stereo unspecified),30 mg/kg
5,CNC(=O)N(O)c1ccccc1,3400 mg/kg
6,COc1ccc2c(=O)c(C)c(C)oc2c1CN(C)C,7.8 mg/kg
7,N[C@@H]1C[C@H]1c1ccc(F)c(F)c1,50 mg/kg
8,C[C@H](CN1CCCC1)C(=O)c1ccc(C(F)(F)F)cc1,525 mg/kg
9,Cc1ccc(C)nc1,800 mg/kg
10,C=CCC,4000 mg/kg
11,COC(=O)[C@H]1[C@H]2C[C@@H]3c4[nH]c5cc(OC)ccc5c4CCN3C[C@H]2C[C@H](OC)[C@@H]1OC,182 mg/kg
12,CN1CCCCC1C(c1ccccc1)c1cccc(O)c1 (stereo unspecified),1 mg/kg
13,CC(C)NCC(O)c1ccc(NS(C)(=O)=O)cc1 (stereo unspecified),3450 mg/kg
14,C1=CCC=C1,113 mg/kg
15,N[C@@H](CC(=O)O)C(=O)O,7940 mg/kg
16,COc1ccc(CNc2cc(C(O)CNC(C)(C)C)ccc2O)cc1 (stereo unspecified),1850 mg/kg
17,Cc1nc2ccccc2c(=O)n1-c1ccc(Br)cc1,185 mg/kg
18,CCCCOCCOCCOCCO,5300 mg/kg
19,Nc1ccc(-c2ccc(-n3nc4ccc5c(S(=O)(=O)O)cc(S(=O)(=O)O)cc5c4n3)cc2)cc1,7210 mg/kg
20,CCOCC(C)O (stereo unspecified),4400 mg/kg
21,CCCCOC(=O)n1c(Br)nc(Br)c1Br,44 mg/kg
